# Experimental data: patent US20230250428A1, “Method and composition for early detection of malignancies” (Alliance of Cardiovascular Researchers, priority 2022, published 2023)
# Legend:
# 4IC cells = assay: Cell cycle profile of 4IC TNBC cells with TRAF3IP2 knockdown and/or Paclitaxel; format: cell-based, human; conditions: 4IC cells in vitro, vs 4ICControl shRNA
# From the text: FIG. 7. […] Cell cycle profiles of 4ICControl shRNA, 4ICControl shRNA+Paclitaxel, 4ICTRAF3IP2 KD and 4ICTRAF3IP2 KD+Paclitaxel (A-D).
# Paclitaxel has been previously shown to arrest cell cycle progression at the G2/M phase, resulting in apoptosis.
# 4IC tumors = assay: Effect of targeting TRAF3IP2 on chemoresistance in vivo (4IC tumors, Paclitaxel combination); parameters: species or system mice; conditions: vs SCR-AO group
# Procedure: FIG. 16. Effect of targeting TRAF3IP2 on chemoresistance in vivo. Tumors were induced using 4IC cells (n=6 animals/group), and mice were treated with one of the following: SCR-AO, SCR-AO+Paclitaxel, TRAF3IP2-AO, or TRAF3IP2-AO+Paclitaxel. Animals in the 4IC SCR-AO group were euthanized by day 28 due to increased tumor […]. Paclitaxel reduced tumor volume by 42% and TRAF3IP2 targeting reduced tumor size by 78%.
# At first, we induced tumors using wild type 4IC cells and a similar set up described in FIG. 12. After tumor induction, each group was treated with one of the following: SCR-AO, SCR-AO and Paclitaxel, TRAF3IP2-AO, or TRAF3IP2-AO and Paclitaxel. Animals in the SCR-AO group had to be euthanized by day 28 due to increased tumor burden. Paclitaxel reduced tumor volume by 42% and TRAF3IP2 targeting reduced tumor size by 78%.
smiles,measurement,setting,value
CC(=O)O[C@H]1C(=O)[C@@]2(C)[C@H]([C@H](OC(=O)c3ccccc3)[C@]3(O)C[C@H](OC(=O)[C@H](O)[C@@H](NC(=O)c4ccccc4)c4ccccc4)C(C)=C1C3(C)C)[C@]1(OC(C)=O)CO[C@@H]1C[C@@H]2O [Paclitaxel],increase in the proportion of cells in G2,4IC cells,23%
same,reduction of tumor volume,4IC tumors,42%
